In PubChem BioAssay (NCI) one finds TGI data, which are given here for 16 compounds.

SMILES strings stand for the structures.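 Each compound was tested at five concentrations against cells in 96-well plates for 48 hours. TGI denotes the concentration required for complete inhibition of growth.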

Common to all, as to experiment: NCI-60 cell line screen, 48 h
Experiment [1] concerns 786-0 renal.
Experiment [2] deals with A549 NSCLC.
The subject of experiment [3] is CCRF-CEM leukemia.
Experiment [4] deals with HL-60(TB) leukemia.
Experiment [5] concerns HOP-92 NSCLC.
Experiment [6] relates to LOX IMVI melanoma.
The test system of experiment [7] is MALME-3M melanoma.
Experiment [8] has as its system NCI-H226 lung.
Experiment [9] deals with NCI-H23 lung.
Experiment [10] relates to NCI-H460 lung.
The subject of experiment [11] is OVCAR-3 ovarian.
The subject of experiment [12] is OVCAR-5 ovarian.
In experiment [13] the test system is OVCAR-8 ovarian.
In experiment [14] the test system is SF-295 CNS.
The subject of experiment [15] is T-47D breast.
For experiment [16], the system named is TK-10 renal.
The subject of experiment [17] is U251 CNS.
The test system of experiment [18] is CAKI-1 renal.
The subject of experiment [19] is SK-OV-3 ovarian.

On to `O=[N+]([O-])c1cc(Cl)cc2cc(Br)cnc12`, for which the TGI in experiment [1] was > 31.6 µM; in [2], > 31.6 µM; in experiment [3], > 31.6 µM; in experiment [4] it was > 31.6 µM; in experiment [5], > 23.5 µM; in experiment [6], > 31.6 µM. The TGI in experiment [7], in experiment [8], in [9], in [10], in experiment [11] and in experiment [12] was > 31.6 µM in each case. For the same compound, the TGI in experiment [13], in experiment [14], in [15], in experiment [16] and in experiment [17] was > 31.6 µM throughout.

On to `COc1ccc2c(ccc3c(COC(=O)NC(C)C)c(COC(=O)NC(C)C)n(C)c32)c1`, for which the TGI in experiment [1] is 20.8 µM; in experiment [2], 55.2 µM; in [18], 8.56 µM; in experiment [3] it was > 100 µM; in experiment [5], 27.2 µM; in experiment [6], 19.6 µM. For the same compound, the TGI was found to be 12.2 µM in [7]; 23.2 µM in experiment [8]; 16 µM in [9]; 2.04 µM in experiment [10]; 26.8 µM in experiment [11]; 30.8 µM in experiment [12]. The TGI was 34.2 µM in experiment [13]; 46.2 µM in experiment [14]; 32.5 µM in experiment [19]; 82.6 µM in [15]; 47.8 µM in experiment [16]; 28.5 µM in experiment [17].

Consider `CCOC(=O)c1ccc(Nc2nc3ccccc3nc2C(=O)OCC)cc1`, for which the TGI in [1], in experiment [2], in experiment [18], in experiment [3], in [4] and in experiment [5] was > 100 µM throughout. In addition, the TGI in experiment [7], in experiment [9], in experiment [10], in [11], in experiment [12] and in experiment [13] was > 100 µM each time. Besides, the TGI in experiment [19], in [15], in experiment [16] and in experiment [17] was > 100 µM each time.

For the compound `CCC1C(=O)C(O)[C@H]2[C@@H]3C(O)CC4=CC(=O)CC[C@]4(C)[C@H]3CC[C@]12C` (stereo partly specified), the TGI in [1], in experiment [2], in experiment [18], in [3], in [4] and in [5] was > 50 µM in each case. The TGI in experiment [6], in experiment [7], in experiment [9], in experiment [10], in experiment [11] and in experiment [12] was > 50 µM in each case. Also, the TGI in experiment [13], in experiment [14], in experiment [19], in experiment [15], in [16] and in experiment [17] was > 50 µM each time.

Regarding `CCOP(=O)(OCC)[C@H]1OC(C)(C)O[C@@H]1CO`, the TGI in experiment [1], in experiment [2], in experiment [18], in [3], in experiment [4] and in experiment [5] was > 100 µM throughout. The TGI in [6], in experiment [7], in experiment [9], in experiment [10], in experiment [11] and in experiment [12] was > 100 µM throughout. Besides, the TGI in [13], in experiment [14], in experiment [19], in experiment [15], in experiment [16] and in [17] was > 100 µM in each case.

In the case of `N#Cc1nc(C(CO)N(Cc2ccccc2)C(=O)O)oc1N` (stereo unspecified), the TGI in experiment [1], in experiment [2], in [18], in experiment [4], in experiment [5] and in [6] was > 100 µM in each case. In addition, the TGI in experiment [8], in experiment [9], in experiment [10], in experiment [11], in [12] and in experiment [13] was > 100 µM in each case. Further, the TGI in [14], in experiment [19], in experiment [15], in experiment [16] and in experiment [17] was > 100 µM throughout.

With `C#CCCCOc1ncccn1`, the TGI in [1], in experiment [2], in experiment [18], in experiment [4], in experiment [5] and in [6] was > 100 µM throughout. The TGI in experiment [7], in experiment [8], in experiment [9], in experiment [11], in [12] and in experiment [13] was > 100 µM each time. In addition, the TGI in experiment [14], in experiment [19], in experiment [15], in experiment [16] and in [17] was > 100 µM throughout.

Consider `Cc1nc(C(N)=S)sc1C(=O)CC(=O)C(=O)Nc1nc2ccccc2[nH]1`, for which the TGI in experiment [1], in [2], in experiment [18], in experiment [4], in [5] and in [6] was > 100 µM each time. Besides, the TGI in [7], in experiment [8], in experiment [9], in experiment [10], in experiment [11] and in [12] was > 100 µM in each case. Besides, the TGI in experiment [13], in experiment [14], in experiment [19], in experiment [15], in experiment [16] and in [17] was > 100 µM in each case.

On to `O=S(=O)(c1ccccc1)C1(CCC2OCCO2)C=CC2(CC1)OCCO2` (stereo unspecified), for which the TGI in experiment [1], in experiment [2], in experiment [3], in [4], in experiment [5] and in experiment [7] was > 100 µM each time. Further, the TGI in experiment [8], in experiment [9], in experiment [10], in [11], in [12] and in [13] was > 100 µM in each case. Besides, the TGI in experiment [14], in experiment [19], in experiment [15], in [16] and in experiment [17] was > 100 µM each time.

As for `Nc1ncnc2c1ncn2[C@H]1CC[C@@H](NO)C1`, the TGI in experiment [1], in experiment [2], in experiment [18], in experiment [3], in [5] and in [6] was > 100 µM in each case. The TGI in experiment [7], in experiment [8], in [9], in [10], in [11] and in experiment [12] was > 100 µM each time. In addition, the TGI in experiment [13], in experiment [14], in experiment [19], in experiment [15], in [16] and in [17] was > 100 µM in each case.

Turning to `Cc1ccc(/C=C2\Cc3cccc(C)c3C2=O)c(C(=O)O)c1`, the TGI was > 100 µM in experiment [1]; > 100 µM in experiment [2]; 48.8 µM in experiment [18]; > 100 µM in experiment [3]; > 100 µM in [4]; 53.6 µM in experiment [5]. Besides, the TGI in experiment [6], in [7], in [8], in experiment [9], in experiment [10] and in experiment [11] was > 100 µM each time. Further, the TGI in experiment [12], in [13], in [14], in [15], in experiment [16] and in experiment [17] was > 100 µM each time.

For the compound `Cn1/c(=N\N=C(\CNCCO)[C@@H](O)[C@@H]2OC(c3ccccc3)OC[C@H]2O)sc2ccccc21` (stereo partly specified), the TGI was determined as 34.3 µM in [1]; 31.1 µM in experiment [2]; 38.6 µM in experiment [18]; 47.4 µM in experiment [3]; 32 µM in experiment [5]; 31 µM in experiment [6]. Besides, the TGI was 32.3 µM in experiment [7]; 37.5 µM in experiment [9]; 49 µM in [10]; 32.7 µM in [11]; 40.3 µM in [12]; 37 µM in experiment [13]. Besides, the TGI in experiment [14] was determined as 33.9 µM; in [19], 37.7 µM; in experiment [15] it was 47 µM; in experiment [16], 36.3 µM; in experiment [17], 31.8 µM.

For the compound `COC(=O)/C=C(\S/C(=N\n1cc(C(=O)OC)c(C(=O)OC)c1-c1ccc(C)cc1)c1ccc(C)cc1)C(=O)OC`, the TGI amounted to 9.69 µM in experiment [1]; 51.8 µM in [2]; 14.7 µM in experiment [4]; 8.31 µM in experiment [5]; 17 µM in experiment [6]; 13.9 µM in experiment [7]. For the same compound, the TGI in experiment [8] is 3.5 µM; in [9], 11.5 µM; in experiment [10], > 56.6 µM; in experiment [11], 12.4 µM; in [12], 14.5 µM; in [13], 34.9 µM. The TGI in [14] was > 100 µM; in [19], > 57.3 µM; in [15], > 100 µM; in [16], 8.42 µM; in experiment [17] it was 14.1 µM.

In the case of `Cc1ccc(-c2nc(-c3cnccn3)n(C3OC(CO)C(O)C(O)C3O)n2)cc1` (stereo unspecified), the TGI in experiment [1], in experiment [2], in [3], in experiment [4], in experiment [5] and in [6] was > 100 µM in each case. For the same compound, the TGI in [9], in experiment [10], in experiment [11], in [12], in experiment [13] and in experiment [14] was > 100 µM throughout. The TGI in experiment [15], in experiment [16] and in experiment [17] was > 100 µM in each case.

On to `Cc1nc2ccccc2c(=O)n1NC(=S)Nc1ccc(Cl)cc1[N+](=O)[O-]`, for which the TGI in experiment [1], in experiment [2], in experiment [18], in experiment [3], in [4] and in experiment [5] was > 100 µM throughout. Also, the TGI in [7], in [9], in experiment [10], in experiment [11], in experiment [12] and in experiment [13] was > 100 µM in each case. The TGI in experiment [14], in experiment [19], in [15], in experiment [16] and in [17] was > 100 µM each time.

For the compound `CN(C)/C=N/NC(=O)/C(C#N)=C/N(C)C`, the TGI in experiment [1], in experiment [2], in experiment [18], in [3], in [4] and in [6] was > 100 µM in each case. Further, the TGI in experiment [7], in [8], in experiment [9], in experiment [10], in experiment [11] and in experiment [12] was > 100 µM in each case. Further, the TGI in experiment [13], in experiment [14], in experiment [19], in [15], in experiment [16] and in experiment [17] was > 100 µM in each case.
